Activity calls are given as the source filed them. The calls are words filed in the database; no cut-off is given here.
Columns and labels:
[1] = Metabolic stability in human liver microsomes assessed as clearance; assay type: ADME, Microsome
[2] = Mutagenicity in Salmonella typhimurium TA98 at 5 to 100 mM incubated for 96 hrs in absence of rat liver s9 microsomes by Ames test; assay type: toxicity; details: salmonella enterica subsp. enterica serovar typhimurium, 100000 µM, dose 5-100 mM
[3] = Mutagenicity in Salmonella typhimurium TA98 at 5 to 100 mM incubated for 96 hrs in presence of rat liver s9 microsomes by Ames test; assay type: toxicity, Microsome; details: salmonella enterica subsp. enterica serovar typhimurium, 100000 µM, dose 5-100 mM
[4] = Mutagenicity in Salmonella typhimurium TA100 at 5 to 100 mM incubated for 96 hrs in absence of rat liver s9 microsomes by Ames test; assay type: toxicity; details: salmonella enterica subsp. enterica serovar typhimurium, 100000 µM, dose 5-100 mM
[5] = Mutagenicity in Salmonella typhimurium TA100 at 5 to 100 mM incubated for 96 hrs in presence of rat liver s9 microsomes by Ames test; assay type: toxicity, Microsome; details: salmonella enterica subsp. enterica serovar typhimurium, 100000 µM, dose 5-100 mM
[6] = Mutagenicity in Salmonella typhimurium TA1535 at 5 to 100 mM incubated for 96 hrs in absence of rat liver s9 microsomes by Ames test; assay type: toxicity; details: salmonella enterica subsp. enterica serovar typhimurium, 100000 µM, dose 5-100 mM
[7] = Mutagenicity in Salmonella typhimurium TA1535 at 5 to 100 mM incubated for 96 hrs in presence of rat liver s9 microsomes by Ames test; assay type: toxicity, Microsome; details: salmonella enterica subsp. enterica serovar typhimurium, 100000 µM, dose 5-100 mM
[8] = Mutagenicity in Salmonella typhimurium TA1537 at 5 to 100 mM incubated for 96 hrs in absence of rat liver s9 microsomes by Ames test; assay type: toxicity; details: salmonella enterica subsp. enterica serovar typhimurium, 100000 µM, dose 5-100 mM
[9] = Mutagenicity in Salmonella typhimurium TA1537 at 5 to 100 mM incubated for 96 hrs in presence of rat liver s9 microsomes by Ames test; assay type: toxicity, Microsome; details: salmonella enterica subsp. enterica serovar typhimurium, 100000 µM, dose 5-100 mM
in vitro = details: human, Caco-2
Description: Apparent permeability of the compound in human Caco-2 cells across apical to basolateral side

Hepatocyte [10] = experiment: Anti-MASH activity in fatty acid induced human iPSC derived Hepatocyte assessed as reduction in lipid level in hepatocyte at 10 uM measured after 48 hrs; assay type: functional, cell-based
Hepatocyte [11] = experiment: Anti-MASH activity in fatty acid induced human iPSC derived Hepatocyte assessed as reduction in lipid droplet size in hepatocyte at 10 uM measured after 48 hrs; assay type: functional, cell-based

CLH [1] [µL/min/mg]	Papp A→B (in vitro) [×10⁻⁶ cm/s]	Compound	Activity [2]	Activity [3]	Activity [4]	Activity [5]	Activity [6]	Activity [7]	Activity [8]	Activity [9]	Activity (Hepatocyte [10])	Activity (Hepatocyte [11])
60	0.8	CSc1ccccc1[C@H]1CCCN1C(=O)CNC(=O)N(Cc1cnc(N)nc1)Cc1ncc(C)s1	Non-toxic	Non-toxic	Non-toxic	Non-toxic	Non-toxic	Non-toxic	Non-toxic	Non-toxic		
	6.6	Cn1nnc(CN(Cc2ccc(N)c(Cl)c2)C(=O)NCC(=O)N2CCC[C@@H]2c2ccccc2Br)n1	Non-toxic	Non-toxic	Non-toxic	Non-toxic	Non-toxic	Non-toxic	Non-toxic	Non-toxic		
	5	CSc1ccccc1[C@H]1CCCN1C(=O)CNC(=O)N(Cc1ccc(N)c(Cl)c1)Cc1nnn(C)n1	Non-toxic	Non-toxic	Non-toxic	Non-toxic	Non-toxic	Non-toxic	Non-toxic	Non-toxic	Active	Active
		CC(C)c1cc(Oc2c(Cl)cc(-n3nc(C#N)c(=O)[nH]c3=O)cc2Cl)n[nH]c1=O									Active	Active
